Article PMC7956476, “Quinoline Functionalized Schiff Base Silver (I) Complexes: Interactions with Biomolecules and In Vitro Cytotoxicity, Antioxidant and Antimicrobial Activities” (Molecules, 2021)

What was measured:
CT-DNA-EB adduct = test: Fluorescence competitive displacement of ethidium bromide from CT-DNA; type: binding, calf; conditions: for CT-DNA-EB-Complex Ksv (M^−1) × 10^4: Stern–Volmer quenching constant, EB displacement, 25 °C; for CT-DNA-EB-Complex Kq (M^−1S^−1) × 10^12: bimolecular quenching constant, Ksv = Kqτo, τo 10^−8 s; for CT-DNA-EB-Complex Kbin (M^−1) × 10^5: binding constant from double-logarithmic plot
Procedure, shortened: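 CT-DNA (15 µM) was pre-equilibrated 30 min with ethidium bromide (15 µM) in phosphate buffer pH 7.2, then titrated with complexes (0–20 µM) at 8-min intervals at room temperature. EB emission was recorded at 530–700 nm (excitation 525 nm, 25 °C), and quenching was analysed by Stern–Volmer to give Ksv and Kq (τo taken as 10^−8 s).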

[1] = system: cervical cancer cell line (HELA); test: Cytotoxicity assay (CellTiter 96 AQueous One Solution, 72 h); type: cell-based, human; conditions: EC50 in HEK293 over EC50 in HELA
Protocol: In vitro cell viability with cultured cells is a method commonly used for cytotoxicity activities of potential anticancer compounds due to reduced cost speed, and potential for automation, and tests using human cells other than some in vivo animal tests. […] The cytotoxicity assay was conducted as per the standard method and as described by Abrahams et al. 2018 [111]. […] The plate was then incubated for 72 h at 37 °C and 5% CO2. To each well, 20 µL CellTiter 96 AQueous One Solution (Promega, Madison, WI, USA) was added and the plates were incubated for 4 h as previously described. Thereafter, absorbance was read at 490 nm on a multiplate reader (Molecular Devices, San Jose, CA, USA). […] The values recorded are averages of at least three separate experiments (n = 3).

calf thymus DNA (CT-DNA) = test: CT-DNA electronic absorption titration (Wolfe–Shimer); type: binding; conditions: intrinsic binding constant, absorption titration, PBS pH 7.2
[2] = Ferric reducing antioxidant power (FRAP) assay; type: biochemical; conditions: done in triplicate
[3] = target: bovine serum albumin (BSA) (Bos taurus, UniProt P02769); test: Albumin binding by absorption spectroscopy titration
Sequence of bovine serum albumin (BSA) (P02769 25-607): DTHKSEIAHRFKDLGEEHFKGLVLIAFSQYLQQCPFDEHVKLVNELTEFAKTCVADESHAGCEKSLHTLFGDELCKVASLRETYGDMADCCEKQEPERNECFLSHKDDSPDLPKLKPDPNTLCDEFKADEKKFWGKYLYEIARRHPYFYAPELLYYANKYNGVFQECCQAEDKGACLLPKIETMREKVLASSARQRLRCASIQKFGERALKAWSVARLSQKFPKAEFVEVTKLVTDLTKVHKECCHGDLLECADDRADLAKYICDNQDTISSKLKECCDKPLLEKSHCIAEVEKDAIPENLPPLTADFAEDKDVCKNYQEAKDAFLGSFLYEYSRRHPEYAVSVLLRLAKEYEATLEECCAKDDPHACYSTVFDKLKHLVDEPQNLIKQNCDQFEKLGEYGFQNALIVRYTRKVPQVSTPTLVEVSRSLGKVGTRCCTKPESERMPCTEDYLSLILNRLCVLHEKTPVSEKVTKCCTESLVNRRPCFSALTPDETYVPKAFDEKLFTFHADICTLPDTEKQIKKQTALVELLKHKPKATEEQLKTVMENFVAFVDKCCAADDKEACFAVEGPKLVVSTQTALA

Row | Compound | CT-DNA-EB-Complex Ksv (M^−1) × 10^4 (CT-DNA-EB adduct) | CT-DNA-EB-Complex Kq (M^−1S^−1) × 10^12 (CT-DNA-EB adduct) | CT-DNA-EB-Complex Kbin (M^−1) × 10^5 (CT-DNA-EB adduct) | Selectivity Index (SI) HELA [1] | CT-DNA-Cmp. Kb (M^−1) × 10^5 (calf thymus DNA (CT-DNA)) | Antioxidant (IC50 mg/mL) FRAP [2] [mg/mL] | Protein-Complex Kb (M^−1) × 10^4 [3]
1 | Cc1ccc(N=Cc2ccc3ccccc3n2)cc1.Cc1ccc(N=Cc2ccc3ccccc3n2)cc1.[Ag+].[O-][Cl+3]([O-])([O-])[O-] [Complex Q9, [Ag(L4)2]ClO4] | 2.49 (M^−1) × 10^4 | 2.49 (M^−1S^−1) × 10^12 | 6.53 (M^−1) × 10^5 | 4.48 | 5.00 (M^−1) × 10^5 | 1.62 ± 0.078 | 5.43 (M^−1) × 10^4
2 | [Ag+].[O-][Cl+3]([O-])([O-])[O-].c1ccc2nc(-c3nc4ccccc4s3)ccc2c1.c1ccc2nc(-c3nc4ccccc4s3)ccc2c1 [Complex Q7, [Ag(L2)2]ClO4] | 3.96 (M^−1) × 10^4 | 3.96 (M^−1S^−1) × 10^12 | 1.29 (M^−1) × 10^5 | 4.39 | 15.0 (M^−1) × 10^5 | 1.13 ± 0.044 | 9.38 (M^−1) × 10^4
